Numbered stars: 1 amine (or outer) side, 2 acyl side, 3 side chain; on linkers, the order of the positions; unused ones are H or OH. Bridge positions count the residues as written; N and C are the ends. Peptide text beside a SMILES is read from it. Biphenyl(4,4'-CH2)2 = c1cc(-c2ccc(C[*:2])cc2)ccc1C[*:1]
How the values were obtained:
[1] = tested on: m6A modification; test: m6A ELISA in cells; format: cell-based; settings: PC3 or DU145 cells, Fig. 5f
[2] = biological target: METTL3 (Homo sapiens, UniProt Q86U44); test: Western blot of METTL3/METTL14 level and half-life; format: cell-based; settings: for METTL3 half-life: PC3 cells pre-treated with cycloheximide (CHX), WB, 25 μM over 12 h; for METTL3 (and METTL14) protein levels by WB: PC3 cells, RSM3 25 μM, 12 h
[3] = tested on: PC3 xenograft tumor; test: PC3 xenograft tumor model; format: in vivo, BALB/c nude mice; settings: for decrease of Ki67 in tumor (IHC) / increase of caspase-3 expression in tumor (IHC) / reduction in METTL3 expression in tumor (IHC) / reduction in m6A levels in tumor (IHC): 20 mg/kg peritumoral; for reduction in METTL3 expression in tumor (IHC) / reduction in m6A levels in tumor (IHC): compared to R9 and PBS groups; for average tumor mass relative to PBS group: 20 mg/kg, 10 days of treatment, Fig. S19c
[4] = tested on: PC3 or DU145; test: Colony formation assay; format: cell-based; settings: 15 μM peptide, PC3 or DU145, n=3
[5] = tested on: PCa cells; test: EdU labeling of cell proliferation; format: cell-based; settings: 15 μM peptide, EdU labeling 2 h
[6] = tested on: DU145 cells; test: Cell viability; format: cell-based; design: unit not given beside the values; settings: comparison experiment Fig. S17, unit not given
[7] = tested on: PC3 cells; test: Flow cytometry cell cycle analysis, PC3; format: cell-based; settings: 15 µM, 12 h, PBS group ∼8.5%
[8] = tested on: DU145; test: Annexin V-FITC flow cytometry apoptosis, DU145; format: cell-based; settings: 15 μM peptide, PBS ∼5%
[9] = Serum stability in 25% FBS; format: in vitro ADME, bovine; settings: 25% FBS (serum:buffer 1:3), pH 7.4
[10] = tested on: PC3 cells; test: Annexin V-FITC flow cytometry apoptosis, PC3; format: cell-based; settings: 15 μM peptide
[11] = tested on: PC3 cells; test: Cell viability; format: cell-based; design: unit not given beside the values; settings: comparison experiment Fig. S17, unit not given
[12] = biological target: METTL3/METTL14 complex (Homo sapiens, UniProt Q86U44); test: Co-Immunoprecipitation of METTL3 and METTL14; format: cell-based; settings: Co-IP, quantitative analysis, Fig. S11
[13] = tested on: ASPC-1 xenograft tumors; test: ASPC-1 xenograft tumor model; format: in vivo, mice; settings: 20 mg/kg, 10 days of treatment
[14] = peri-tumoral injection 20 mg/kg every two days for two weeks

Chain of METTL3 (Q86U44 whole entry): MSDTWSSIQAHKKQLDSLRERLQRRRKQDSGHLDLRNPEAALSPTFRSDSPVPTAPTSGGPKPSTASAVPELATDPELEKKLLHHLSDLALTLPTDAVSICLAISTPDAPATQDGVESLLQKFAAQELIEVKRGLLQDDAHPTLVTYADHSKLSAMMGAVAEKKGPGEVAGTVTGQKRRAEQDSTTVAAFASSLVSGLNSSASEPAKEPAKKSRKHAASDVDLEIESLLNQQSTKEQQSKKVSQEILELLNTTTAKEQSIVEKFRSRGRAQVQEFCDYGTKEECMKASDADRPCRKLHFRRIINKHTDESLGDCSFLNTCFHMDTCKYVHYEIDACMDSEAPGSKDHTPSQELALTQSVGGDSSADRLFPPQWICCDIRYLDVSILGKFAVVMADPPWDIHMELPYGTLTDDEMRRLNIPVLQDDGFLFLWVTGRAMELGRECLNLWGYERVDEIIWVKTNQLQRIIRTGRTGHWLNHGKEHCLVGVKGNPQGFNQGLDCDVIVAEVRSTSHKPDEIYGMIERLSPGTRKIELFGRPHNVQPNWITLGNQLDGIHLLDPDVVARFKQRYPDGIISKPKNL
Chain of METTL3/METTL14 complex (Q86U44 whole entry, one chain of several): as the sequence (Q86U44 whole entry) above

Molecule	m6A modification level relative to R9 and PBS treatment groups [1] [%]	METTL3 half-life [2]	decrease of Ki67 in tumor (IHC) [3] [%]	increase of caspase-3 expression in tumor (IHC) [3] [fold]	reduction in METTL3 expression in tumor (IHC) [3] [%]	reduction in m6A levels in tumor (IHC) [3] [%]	tumor growth compared to R9 or PBS control groups [3, 14]	fold reduction in colony formation [4] [fold]	EdU signal relative to PBS control group [5] [%]	IC50 in DU145, RSM3 vs STM2457 [6]	METTL3 (and METTL14) protein levels by WB [2]	average tumor mass relative to PBS group [3] [%]	IC50 in PC3, RSM3 vs STM2457 [11]	also measured
CSCC[C@H](NC(=O)[C@H](CS)NC(=O)[C@H](CCCNC(=N)N)NC(=O)[C@H](CCCNC(=N)N)NC(=O)[C@H](CCCNC(=N)N)NC(=O)[C@H](CCCNC(=N)N)NC(=O)[C@H](CCCNC(=N)N)NC(=O)[C@H](CCCNC(=N)N)NC(=O)[C@H](CCCNC(=N)N)NC(=O)[C@H](CCCNC(=N)N)NC(=O)[C@H](CCCNC(=N)N)NC(=O)[C@@H](N)CCCNC(=N)N)C(=O)N[C@@H](CCC(=O)O)C(=O)N[C@@H](CC(C)C)C(=O)NCC(=O)N[C@@H](CCCNC(=N)N)C(=O)N[C@@H](CCC(=O)O)C(=O)N[C@@H](CS)C(=O)N[C@@H](CC(C)C)C(=O)N[C@@H](CC(N)=O)C(=O)N[C@@H](CC(C)C)C(=O)N[C@@H](Cc1c[nH]c2ccccc12)C(N)=O [RM3] (H-RRRRRRRRRRCMELGRECLNLW-NH2; N-terminus assumed)	~20	dramatically reduced half-life	~65	~1.8	~50	~50	significant suppression of tumor growth	~20	~47.0	–	–	–	–	–
CSCC[C@@H]1NC(=O)[C@@H](NC(=O)[C@H](CCCNC(=N)N)NC(=O)[C@H](CCCNC(=N)N)NC(=O)[C@H](CCCNC(=N)N)NC(=O)[C@H](CCCNC(=N)N)NC(=O)[C@H](CCCNC(=N)N)NC(=O)[C@H](CCCNC(=N)N)NC(=O)[C@H](CCCNC(=N)N)NC(=O)[C@H](CCCNC(=N)N)NC(=O)[C@H](CCCNC(=N)N)NC(=O)[C@@H](N)CCCNC(=N)N)CSCc2ccc(cc2)-c2ccc(cc2)CSC[C@@H](C(=O)N[C@@H](CC(C)C)C(=O)N[C@@H](CC(N)=O)C(=O)N[C@@H](CC(C)C)C(=O)N[C@@H](Cc2c[nH]c3ccccc23)C(N)=O)NC(=O)[C@H](CCC(=O)O)NC(=O)[C@H](CCCNC(=N)N)NC(=O)CNC(=O)[C@H](CC(C)C)NC(=O)[C@H](CCC(=O)O)NC1=O [RSM3] (H-RRRRRRRRRRCMELGRECLNLW-NH2; linker 11-18 via Biphenyl(4,4'-CH2)2; N-terminus assumed)	~20	dramatically reduced half-life	~65	~1.8	~50	~50	significant suppression of tumor growth	~20	~35.0	33.6 ± 1.5	reduced	~37	26.5 ± 1.2	cells arrested in sub-G1 phase, PC3 [7]: ~29.2%; tumor volume, fold smaller than controls [3, 14]: 2∼3 fold; cells that entered apoptosis, DU145 [8]: ~30%; remaining at 6 h, 200 µM [9]: ~41.8%; late-stage share of total apoptotic PC3 cells [10]: ~90%; proportion of apoptotic cells, fold higher than RM3 [10]: approximately 2 fold; cells that entered apoptosis, PC3 ([10]; PBS 4%): ~60%; reduction of METTL3-METTL14 interaction [12]: fifty; tumor weight, lighter than PBS- and R9-treated controls [13]: ~50%
STM2457 [reference compound]	–	–	–	–	–	–	–	–	–	149.3 ± 10.1	no influence	70	95.5 ± 3.6	–

Source: article doi:10.1101/2023.09.04.556216v2 (bioRxiv, 2023)
